This note sets out measurements from PubChem BioAssay (NCI).

Where “and” joins values, the source holds several entries; their conditions need not be identical. Equal values may be shown once.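 1) Cells in 96-well plates. 2) Compound, 48 h, 5 concentrations. 3) Linear interpolation between surrounding doses. 4) Unreached endpoint = highest concentration. GI50 marks 50% less growth. TGI: total growth inhibition.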

What all share (test): DTP human tumour cell line panel, 48 h
The test system of assay [1] is DLD-1 colon.
The subject of assay [2] is DMS 114 small cell lung.
Assay [3] relates to HCC-2998 colon.
Assay [4] has as its system HOP-18 NSCLC.
For assay [5], the system named is KM20L2 colon.
Assay [6] deals with M19-MEL melanoma.
Assay [7] has as its system SNB-78 CNS.
Assay [8] relates to BT-549 breast.
Assay [9] relates to DU-145 prostate.
Assay [10] concerns HS 578T breast.

Broadly, the TGI is the concentration at which net growth stops. Lower therefore signals more potent growth arrest. For `COc1cc2ccc3c4cc(OC)c(OC(C)C)cc4cnc3c2cc1OC`, the TGI in assay [1], in [2], in assay [3], in assay [4], in [5] and in assay [6] was more than 100 µM throughout. Besides, in assay [7], the TGI was more than 100 µM.
In the case of `O=C1c2ccc3c4ccccc4n(Cc4ccccc4)c3c2C(=O)N1c1ccccc1`, the TGI in [1] turned out to be 37.3 µM; in [2], 34.1 µM; in assay [3] it was 37.2 µM; in assay [4] it was 24.4 µM; in assay [5], 45.2 µM; in [6], 33.2 µM. For the same compound, the total growth inhibition concentration (TGI) in assay [7] came out at 71.7 µM.
With `O=C(Nc1cc(Cl)ccc1Cl)C(=O)C(c1cnc2ccccc2n1)[N+](=O)[O-]` (stereo not given), the TGI in [1], in [2], in [3], in assay [4], in [5] and in [6] was more than 100 µM throughout. The compound further had a concentration for total growth inhibition (TGI) in assay [7] of more than 100 µM.
For `CCOC(=N)CC(=O)Nc1cccc(C)c1C`, the total growth inhibition concentration (TGI) in [1], in assay [3], in assay [5], in [6] and in assay [7] was more than 100 µM each time.
With `Cc1cc(NS(=O)(=O)c2ccc(Nc3c4ccccc4nc4c(C(=O)NCCN(C)C)cccc34)cc2)no1`, the TGI in [1] was more than 100 µM; in [2] it was 14 µM; in assay [3], 27 µM; in [5], more than 100 µM; in assay [6] it was more than 100 µM; in assay [7], 80.4 µM.
For orientation: GI50 means the concentration at which growth is held to half of that of the control. For the compound `CC(=O)/C=C/c1ccc(C#Cc2ccccc2)s1`, the GI50 in assay [8] was 13.5 µM; in [9], 10.8 µM; in [3] it was 14.7 µM; in [10], 23.9 µM. Also, the TGI in [8] was determined as 28 µM; in assay [9] it was 24 µM; in assay [3], 27.8 µM; in assay [10], 56.3 µM.
As to `O=C(Nc1ccc(Br)cc1)c1ccc(Cl)c(Cl)c1`, the GI50 in [8] is 2.74 µM; in assay [9] it was 3.86 µM; in [3], 3.99 µM; in assay [10], 3.8 µM. Moreover, the concentration for total growth inhibition (TGI) in assay [8] was more than 29.8 µM; in assay [9], more than 100 µM; in assay [3], more than 71.7 µM; in assay [10], more than 100 µM.
On to `C=CCNC(=O)N(CCC)CCCCC(NC(C)=O)C(=O)NCc1ccccc1` (stereo not given), for which the TGI in assay [2], in assay [3], in assay [4], in assay [5] and in assay [6] was more than 100 µM throughout.
Take `CC(C)(C=O)CC(C#N)/C(=N\NC(N)=O)C(=O)Nc1ccccc1C(N)=O` (stereo not given): the TGI in [3], in assay [5], in assay [6] and in [7] was more than 100 µM in each case.
For `CN[C@@H](C)[C@H](NC)c1ccccc1`, the total growth inhibition concentration (TGI) in assay [1], in assay [2], in assay [3], in [4], in assay [6] and in assay [7] was more than 100 µM in each case.
`Cc1c(C2=C(Br)C(=O)N(C)C2=O)c(=O)n(C)c(=O)n1C`: the total growth inhibition concentration (TGI) is 51.1 µM in [8], 80.9 µM in assay [9], 53.3 µM in assay [3] and more than 100 µM in assay [10].
For the compound `COc1ccc(C2c3cc(OC)c(OC)cc3C(Cc3ccc([N+](=O)[O-])cc3)C2c2ccc([N+](=O)[O-])cc2)cc1OC` (stereo not given), the TGI in [1], in [2], in [3], in assay [5], in assay [6] and in assay [7] was more than 100 µM throughout.
As to `Cc1cc(N/N=C/c2nc(-c3ccc(Br)cc3)oc2C)c2cc(Br)ccc2n1`, the GI50 is 10.7 µM in [8], 3.81 µM in assay [9], 7.43 µM in assay [3] and 4.21 µM in assay [10]. In addition, the TGI in assay [8] amounted to 23.3 µM; in [9] it was 13.9 µM; in assay [3], 20.8 µM; in assay [10] it was 26.2 µM.
For `COc1ccc(OC)c2c(/C=C/c3ccc(N(C)C)cc3)ccnc12`, the TGI in [8], in assay [9], in [3] and in assay [10] was more than 10 µM each time.
Take `COc1cc(C)c2c(c1C)OC(=O)c1c(C)c(Cl)c(O)c(C=O)c1O2`: the TGI is 59 µM in [1], 47.5 µM in [3], 69.5 µM in [5] and 50.6 µM in [7].
For `CC1(C)O/C(=C\c2ccccc2)C(=O)/C(=C/c2ccccc2)O1`, the TGI in assay [1] was more than 100 µM; in assay [2], 48.1 µM; in assay [4] it was more than 100 µM; in assay [6], more than 100 µM; in assay [7] it was more than 100 µM.
As to `COc1cc2cccc(N=Cc3cccc(OC)c3OC(C)C)c2cc1OC`, the TGI in assay [1] is 70 µM; in assay [2] it was 38.7 µM; in assay [3] it was more than 100 µM; in assay [5], more than 100 µM; in assay [6], 48.2 µM; in assay [7], more than 100 µM.
Turning to `COc1ccc2c(c1)[C@@]13CCCC[C@H]1[C@@H](C2)N(C)CC3=O`, the TGI in assay [8] was 31.4 µM; in [9], 45.2 µM; in assay [3], 31.5 µM; in assay [10] it was 66.6 µM.
For the compound `CC(C)CCCC(C)[C@H]1CCC2[C@H]3C(CC[C@@]21C)[C@@]1(C)CCC=C[C@]12C[C@@H]2[C@@H]3O` (stereo not given in full), the TGI in assay [1], in assay [2], in assay [3], in assay [4], in assay [5] and in [7] was more than 100 µM throughout.
On to `Oc1cn(-c2ccc(Cl)cc2)nc1-c1n[nH]c(=S)n1C1CCCCC1`, for which the GI50 is 9.51 µM in [8], 0.502 µM in [9], 2.33 µM in [3] and 0.28 µM in [10]. Also, the concentration for total growth inhibition (TGI) in [8] is more than 100 µM; in assay [9] it was more than 33.9 µM; in assay [3], 14.3 µM.
For `COc1cc2c(c(OC)n1)[C@]1(O)[C@H](O)[C@H](CN(C)C)[C@@H](c3ccccc3)[C@]1(c1ccc(C#N)cc1)O2`, the GI50 was 0.0451 µM and 0.0737 µM in assay [8]; 0.0191 µM and < 0.0136 µM in [9]; less than 0.01 µM in assay [3]; 0.0402 µM and 0.0367 µM in [10]. Further, the TGI in assay [8] is 0.825 µM and 2.62 µM; in [9] it was 3.45 µM and 3.69 µM; in [3], 0.564 µM and 0.81 µM; in assay [10], 1.97 µM and 1.16 µM.
